Calls of active or inactive are those of the source. The rule behind the calls is not given here.
Tested on: GENE-TOX genotoxicity assays, various organisms and cells
Assay: GENE-TOX mutagenicity studies
Conditions: for call: Assay Type: In vivo carcinogenicity studies
[1] = Species/Cell Type: Bacillus subtilis (H17 vs M45), Assay Type: Rec-assay, spot test, DNA effects (bacterial DNA repair), Assay Code: REW-, Evaluation Type: Evaluation A (Pre-1980)
[2] = Species/Cell Type: Bacillus subtilis (H17 vs M45T), Assay Type: Rec-assay, spot test, DNA effects (bacterial DNA repair), Assay Code: REXT, Evaluation Type: Evaluation A (Pre-1980)
[3] = Species/Cell Type: Salmonella typhimurium (one or more of the five standard strains: TA98, TA100, TA1535, TA1537, and TA1538), Assay Type: Histidine reverse gene mutation, Ames assay, Assay Code: SALT, Evaluation Type: Evaluation A (Pre-1980)
[4] = Species/Cell Type: Bacillus subtilis (H17 vs M45), Assay Type: Rec-assay, spot test, DNA effects (bacterial DNA repair), Assay Code: REWT, Evaluation Type: Evaluation A (Pre-1980)
[5] = Species/Cell Type: Fischer rat embryo (RLV/1706) cells, Assay Type: Cell transformation, viral enhanced, Assay Code: CTR+, Evaluation Type: Evaluation A (Pre-1980)
[6] = Species/Cell Type: Nonhuman, Assay Code: CCG+, Evaluation Type: Evaluation A (Pre-1980)
[7] = Species/Cell Type: Drosophila melanogaster, Assay Type: Sex-linked recessive lethal gene mutation, Assay Code: SRL+, Evaluation Type: Evaluation A (Pre-1980)
[8] = Species/Cell Type: Saccharomyces cerevisiae, Assay Type: Mitotic recombination or gene conversion, Assay Code: YEC+, Evaluation Type: Evaluation A (Pre-1980)
[9] = Species/Cell Type: Salmonella typhimurium (one or more of the five standard strains: TA98, TA100, TA1535, TA1537, and TA1538), Assay Type: Histidine reverse gene mutation, Ames assay, Assay Code: SAL-, Evaluation Type: Evaluation A (Pre-1980)
[10] = Species/Cell Type: Salmonella typhimurium (one or more of the five standard strains: TA98, TA100, TA1535, TA1537, and TA1538), Assay Type: Histidine reverse gene mutation, Ames assay, Assay Code: SAL+, Evaluation Type: Evaluation A (Pre-1980)

C/C(=C(\CCOC(=O)c1ccccc1)SC(=O)c1ccccc1)N(C=O)Cc1cnc(C)nc1N
mutagenic call [1]: inactive; negative | mutagenic call (Species/Cell Type: Escherichia coli WP2, Assay Type: Tryptophan reverse gene mutation, Assay Code: WP2-*, Activation: With metabolic activation, Evaluation Type: Evaluation A (Pre-1980)): inactive; negative | mutagenic call (Species/Cell Type: Escherichia coli WP2 UVRA, Assay Type: Tryptophan reverse gene mutation, Assay Code: WPU-*, Activation: With metabolic activation, Evaluation Type: Evaluation A (Pre-1980)): inactive; negative

Cc1c(C2(c3cc(Br)c(O)c(Br)c3C)OS(=O)(=O)c3ccccc32)cc(Br)c(O)c1Br
mutagenic call [2]: no conclusion | mutagenic call [3]: no conclusion

[Cl][Ce]([Cl])[Cl]
mutagenic call [1]: inactive; negative

CCCCCCCC(=O)Oc1c(I)cc(C#N)cc1I
mutagenic call [4]: no conclusion

C/C=C\C(=O)O[C@@H]1C[C@H]2O[C@@H]3C=C(C)[C@@H]4O[C@@H]4[C@]3(C)C1(C)[C@]21CO1
mutagenic call [3]: no conclusion

CNC(N)=O
mutagenic call (Species/Cell Type: Human lymphocytes, Assay Type: Sister-chromatid exchange (SCE) in vitro, Assay Code: SCLT, Evaluation Type: Evaluation B (Post-1980)): no conclusion | mutagenic call (Species/Cell Type: Human, Assay Type: Sister-chromatid exchange (SCE) in vitro, Assay Code: SC1T, Evaluation Type: Evaluation B (Post-1980)): no conclusion | mutagenic call (Species/Cell Type: Salmonella typhimurium, Assay Type: Forward and reverse gene mutation, host-mediated assay, Assay Code: HMA+, Evaluation Type: Evaluation A (Pre-1980)): active; positive

Cn1sc(Cl)cc1=O
mutagenic call (Species/Cell Type: Mammalian polychromatic erythrocytes, Assay Type: Micronucleus test, chromosome aberrations, Assay Code: MNT-, Evaluation Type: Evaluation B (Post-1980)): inactive; negative

Clc1nc(Cl)nc(Nc2ccccc2Cl)n1
mutagenic call [5]: active; positive | call (Species/Cell Type: Nonhuman, Assay Code: CCG-, Evaluation Type: Evaluation A (Pre-1980)): inactive; negative

Nc1nnc(-c2ccc([N+](=O)[O-])o2)s1
call [6]: active; positive

CC(C)NP(=O)(N1CC1)N1CC1
mutagenic call [7]: active; positive | mutagenic call (Species/Cell Type: Nonhuman, Assay Type: Chromosome aberrations in vitro, Assay Code: CY&+, Evaluation Type: Evaluation A (Pre-1980)): active; positive

CCOP(=O)(N=C1SCC(C)S1)OCC (stereo not given)
mutagenic call (Species/Cell Type: Hordeum vulgare (barley), Assay Type: Chromosome aberrations, Assay Code: HOC+D, Dose Response: With dose response, Evaluation Type: Evaluation A (Pre-1980)): active; positive

CCCC(C)(COC(N)=O)COC(N)=O
mutagenic call (Species/Cell Type: Drosophila melanogaster, Assay Type: Aneuploidy, partial sex chromosome loss, chromosome aberrations, Assay Code: DAPT, Evaluation Type: Evaluation A (Pre-1980)): no conclusion | mutagenic call (Species/Cell Type: Drosophila melanogaster, Assay Type: Aneuploidy, whole sex chromosome loss, chromosome aberrations, Assay Code: DAC-M, Evaluation Type: Evaluation A (Pre-1980)): inactive; negative | mutagenic call (Species/Cell Type: Drosophila melanogaster, Assay Type: Sex-linked recessive lethal gene mutation, Assay Code: SRL-, Evaluation Type: Evaluation A (Pre-1980)): inactive; negative

CC(=O)ON(C(C)=O)c1ccc(/C=C/c2ccccc2)cc1
mutagenic call [8]: active; positive | mutagenic call (Species/Cell Type: Saccharomyces cerevisiae, Assay Type: Mitotic recombination or gene conversion, Assay Code: YEH+, Evaluation Type: Evaluation A (Pre-1980)): active; positive | mutagenic call (Species/Cell Type: Saccharomyces cerevisiae, Assay Type: Reverse gene mutation, Assay Code: YER+, Evaluation Type: Evaluation A (Pre-1980)): active; positive

Cc1c2ccccc2cc2c1ccc1cccc(C)c12
mutagenic call (Species/Cell Type: Drosophila melanogaster, Assay Type: Sex-linked recessive lethal gene mutation, Assay Code: SRLT, Evaluation Type: Evaluation A (Pre-1980)): no conclusion

CC(CNC(=O)N(CCCl)N=O)NC(=O)N(CCCl)N=O (stereo not given)
mutagenic call [7]: active; positive | mutagenic call [8]: active; positive

O=S(=O)(O)c1ccc(N=Nc2c(O)ccc3ccccc23)cc1
mutagenic call [4]: no conclusion | mutagenic call [3]: no conclusion

CC(N)=O
mutagenic call (Species/Cell Type: Escherichia coli polA (W3110 vs P3478), Assay Type: Rec-assay, DNA effects (bacterial DNA repair), Assay Code: RE2-, Evaluation Type: Evaluation A (Pre-1980)): inactive; negative | mutagenic call (Species/Cell Type: Escherichia coli polA (W3119 vs P3478), Assay Type: Rec-assay, DNA effects (bacterial DNA repair), Assay Code: RE1T, Evaluation Type: Evaluation A (Pre-1980)): no conclusion | mutagenic call [5]: active; positive | mutagenic call (Species/Cell Type: Mammalian polychromatic erythrocytes, Assay Type: Micronucleus test, chromosome aberrations, Assay Code: MNT+U, Dose Response: Unconfirmed positive response, Evaluation Type: Evaluation B (Post-1980)): active; positive | mutagenic call (Species/Cell Type: Mouse embryo (AKR/ME) cells, Assay Type: Cell transformation, Assay Code: CTK+, Evaluation Type: Evaluation A (Pre-1980)): active; positive | mutagenic call (Species/Cell Type: Mouse, Sex: Male, Assay Type: Sperm morphology, Assay Code: SPI-, Evaluation Type: Evaluation A (Pre-1980)): inactive; negative | call [6]: active; positive | mutagenic call (Species/Cell Type: Saccharomyces cerevisiae, Assay Type: Mitotic recombination or gene conversion, Assay Code: YEH-, Evaluation Type: Evaluation A (Pre-1980)): inactive; negative | mutagenic call [9]: inactive; negative | mutagenic call (Species/Cell Type: Salmonella typhimurium, Assay Type: Forward and reverse gene mutation, host-mediated assay, Assay Code: HMA-, Evaluation Type: Evaluation A (Pre-1980)): inactive; negative | mutagenic call (Species/Cell Type: Syrian hamster embryo (SHE) cells, Assay Type: Cell transformation, clonal assay, Assay Code: CTC+, Evaluation Type: Evaluation A (Pre-1980)): active; positive

O=C(O)c1ccccc1N=Nc1c(O)c(S(=O)(=O)O)cc2cc(S(=O)(=O)O)ccc12
mutagenic call [3]: no conclusion

CCCCN(CC(=O)CC)N=O
mutagenic call (Species/Cell Type: Salmonella typhimurium (one or more of the five standard strains: TA98, TA100, TA1535, TA1537, and TA1538), Assay Type: Histidine reverse gene mutation, Ames assay, Assay Code: SAL+*, Activation: With metabolic activation, Evaluation Type: Evaluation A (Pre-1980)): active; positive

CS/C(C)=N/OC(=O)N(C)N=O
mutagenic call [10]: active; positive

O=C1OC2(c3cc(Br)c(O)cc3Oc3c2cc(Br)c(O)[c]3[Hg])c2ccccc21 (stereo not given)
mutagenic call (Species/Cell Type: Saccharomyces cerevisiae, Assay Type: Aneuploidy, chromosome aberrations, Assay Code: YEN+, Evaluation Type: Evaluation A (Pre-1980)): active; positive | mutagenic call [8]: active; positive

N#Cc1cccc2c([N+](=O)[O-])cccc12
mutagenic call [2]: no conclusion | mutagenic call (Species/Cell Type: Escherichia coli WP2, Assay Type: Tryptophan reverse gene mutation, Assay Code: WP2-, Evaluation Type: Evaluation A (Pre-1980)): inactive; negative | mutagenic call (Species/Cell Type: Escherichia coli WP2 UVRA, Assay Type: Tryptophan reverse gene mutation, Assay Code: WPU+, Evaluation Type: Evaluation A (Pre-1980)): active; positive | mutagenic call (Species/Cell Type: Nonhuman, Assay Type: Sister-chromatid exchange (SCE) in vitro, Assay Code: SC2+, Evaluation Type: Evaluation B (Post-1980)): active; positive | mutagenic call [10]: active; positive

OC1c2c(c3cc4ccccc4cc3c3ccccc23)C=C[C@H]1O (stereo not given in full)
mutagenic call (Species/Cell Type: Nonhuman, Assay Type: Sister-chromatid exchange (SCE) in vitro, Assay Code: SC2+D, Dose Response: With dose response, Evaluation Type: Evaluation B (Post-1980)): active; positive

Cc1c2ccccc2cc2c3c(ccc12)C=C[C@@H](O)[C@@H]3O
mutagenic call (Species/Cell Type: Mouse prostate cells, Assay Type: Cell transformation, Assay Code: CTM+, Evaluation Type: Evaluation A (Pre-1980)): active; positive | call (Species/Cell Type: Nonhuman, Assay Code: CCGT, Evaluation Type: Evaluation A (Pre-1980)): no conclusion | mutagenic call (Species/Cell Type: Nonhuman, Assay Type: Sister-chromatid exchange (SCE) in vitro, Assay Code: SC2+, Evaluation Type: Evaluation A (Pre-1980)): active; positive

COC1=C2C[C@@H](C)C[C@H](OC)[C@H](O)[C@@H](C)/C=C(\C)[C@H](OC(N)=O)[C@@H](OC)/C=C\C=C(/C)C(=O)NC(=CC1=O)C2=O
mutagenic call (Species/Cell Type: Fischer rat embryo (RLV/1706) cells, Assay Type: Cell transformation, viral enhanced, Assay Code: CTR-, Evaluation Type: Evaluation A (Pre-1980)): inactive; negative

O=C(O)[C@@H]1[C@H](C(=O)O)[C@H]2CC[C@@H]1O2
mutagenic call (Species/Cell Type: Allium cepa, Assay Type: Chromosome aberrations, Assay Code: ALC+, Evaluation Type: Evaluation A (Pre-1980)): active; positive

O=S(=O)(O)c1c(N=Nc2c(O)ccc3ccccc23)ccc2ccccc12
mutagenic call [9]: inactive; negative

OCC1=C[C@H](N[C@H]2C[C@H](CO)[C@@H](O[C@@H]3O[C@H](CO)[C@@H](O)[C@H](O)[C@H]3O)[C@H](O)[C@H]2O)[C@H](O)[C@@H](O)[C@@H]1O
mutagenic call [1]: inactive; negative

O=C(O)c1c(Cl)c(Cl)c(Cl)c(Cl)c1-c1c2cc(Br)c(=O)c(Br)c-2oc2c(Br)c(O)c(Br)cc12
mutagenic call [4]: no conclusion

Cl.[Pt]
mutagenic call (Species/Cell Type: Syrian hamster embryo (SA7/SHE) cells, Assay Type: Cell transformation, viral enhanced, Assay Code: CT7+, Evaluation Type: Evaluation A (Pre-1980)): active; positive

Reference: PubChem BioAssay AID1259408 (Genetic Toxicology Data Bank (GENE-TOX), 2018)
